EC50 and CC50 data for 34 compounds are collected here from patent publication US20180072997A1, “INHIBITORS OF HUMAN IMMUNODEFICIENCY VIRUS REPLICATION” (ViiV HEATHCARE UK (NO.5) LIMITED, priority 2015, published 2018).

Structures are written as SMILES. pEC50: −log10 of the molar value.

The test system of data set [1] is recombinant NL4-3 virus (Renilla luciferase in nef) in MT-2 cells. In words: whole plant or invertebrate. In kind it is cell-based, HIV. To be noted: Renilla, NL43, MT-2 cells infected for 4-5 days with recombinant NL4-3 Renilla luciferase virus; luciferase activity. The procedure:
HIV cell culture assay—MT-2 cells, 293T cells and the proviral DNA clone of NL4-3 virus were obtained from the NIH AIDS Research and Reference Reagent Program. MT-2 cells were propagated in RPMI 1640 media supplemented with 10% heat inactivated fetal bovine serum (FBS), 100 μg/ml penicillin G and up to 100 units/mL streptomycin. The 293T cells were propagated in DMEM media supplemented with 10% heat inactivated FBS, 100 μg/mL penicillin G and 100 μg/mL streptomycin. A recombinant NL4-3 proviral clone, in which a section of the nef gene was replaced with the Renilla luciferase gene, was used to make the reference virus used in these studies. The recombinant virus was prepared through transfection of the recombinant NL4-3 proviral clone into 293T cells using Transit-293 Transfection Reagent from Mirus Bio LLC (Madison, Wis.). Supernatent was harvested after 2-3 days and the amount of virus present was titered in MT-2 cells using luciferase enzyme activity as a marker by measuring luciferase enzyme activity. Luciferase was quantitated using the EnduRen Live Cell Substrate from Promega (Madison, Wis.). Antiviral activities of compounds toward the recombinant virus were quantified by measuring luciferase activity in MT-2 cells infected for 4-5 days with the recombinant virus in the presence of serial dilutions of the compound.
(Johnson V A, Byington R T. Infectivity Assay. In Techniques in HIV Research. ed. Aldovini A, Walker BD. 71-76. New York: Stockton Press.1990).

Data set [2] in a line: Compound cytotoxicity, XTT-based colorimetric assay. In kind it is cell-based. To be noted: human, uninfected MT2 cells, day 4, XTT. The procedure: Compound cytotoxicity and the corresponding CC50 values were determined using the same protocol as described in the antiviral assay except that uninfected cells were used. Cytotoxicity was assessed on day 4 in uninfected MT2 cells by using a XTT (2,3-bis[2-Methoxy-4-nitro-5-sulfophenyl]-2H-tetrazolium-5-carboxyanilide inner salt)-based colorimetric assay (Sigma-Aldrich, St Louis, Mo.).

In the case of `CN(C(=O)[C@H](Cc1cc(F)cc(F)c1)NS(=O)(=O)CS(=O)(=O)N[C@@H](Cc1cc(F)cc(F)c1)C(=O)N(C)c1ccc2scnc2c1)c1ccc2scnc2c1` [Example 202], in data set [1], the pEC50 is 7.10. Further, the CC50 at 4 days in data set [2] was at least 100 µM.
For the compound `COc1ccc(N(C)C(=O)[C@H](Cc2ccccc2)NC(=O)c2cc(C(=O)O)cc(C(=O)N[C@@H](Cc3ccccc3)C(=O)N(C)c3ccc(OC)cc3)c2)cc1` [Example 55], the pEC50 in data set [1] was 5.00. The compound further showed a CC50 at 4 days in data set [2] of 85.8 µM.
Taken in the same sequence, the figures for `COc1ccc(N(C)C(=O)[C@H](Cc2cc(F)cc(F)c2)NC(=O)Cn2c(=O)n(CC(=O)N[C@@H](Cc3cc(F)cc(F)c3)C(=O)N(C)c3ccc(OC)cc3)c3cc(Cl)ccc32)cc1` [Example 72] were 7.40 and 4.4 µM.
On to `CCc1ncc(N(C)C(=O)[C@H](Cc2cc(F)cc(F)c2)NC(=O)c2ccc(F)c(C(=O)N[C@@H](Cc3cc(F)cc(F)c3)C(=O)N(C)c3cnc(CC)nc3)c2)cn1` [Example 206], for which the pEC50 in data set [1] is 4.84. This compound also yielded a CC50 at 4 days in data set [2] of at least 33.3 µM.
The corresponding values for `CN(C(=O)[C@H](Cc1cc(F)cc(F)c1)NC(=O)NS(=O)(=O)N[C@@H](Cc1cc(F)cc(F)c1)C(=O)N(C)c1ccc2c(c1)ncn2C)c1ccc2c(c1)ncn2C` [Example 186] are 5.21 and at least 100 µM.
Taken in the same sequence, the figures for `COc1ccc(N(C)C(=O)[C@H](Cc2ccccc2)NC(=O)CCN2CCN(CCC(=O)N[C@@H](Cc3ccccc3)C(=O)N(C)c3ccc(OC)cc3)CC2)cc1` [Example 40] were 6.51 and 36 µM.
With `CN(C(=O)[C@H](Cc1ccccc1)NC(=O)c1cccc(C(=O)N[C@@H](Cc2ccccc2)C(=O)N(C)c2ccc3scnc3c2)c1)c1ccc2scnc2c1` [Example 50], in data set [1], the pEC50 was 7.40. In addition, in data set [2], half-maximal cytotoxicity (CC50 at 4 days) was put at 3.7 µM.
As to `COc1ccc(N(C)C(=O)[C@H](Cc2ccccc2)NC(=O)NS(=O)(=O)N[C@@H](Cc2ccccc2)C(=O)N2CCCC2)cc1` [Example 8], in data set [1], the pEC50 is 5.69. The compound also had a CC50 at 4 days in data set [2] of at least 33.3 µM.
Taken in the same sequence, the figures for `COc1ccc(N(C)C(=O)[C@H](Cc2ccccc2)NC(=O)OCCOC(=O)N[C@@H](Cc2ccccc2)C(=O)N(C)c2ccc(OC)cc2)cc1` [Example 56] were 5.59 and 10.5 µM.
On to `COc1ccc(N(C)C(=O)[C@H](Cc2ccccc2)NC(=O)CC(C)(C)CC(=O)N[C@@H](Cc2ccccc2)C(=O)N(C)c2ccc(OC)cc2)cc1` [Example 77], for which the pEC50 in data set [1] was 5.40. This compound had a CC50 at 4 days in data set [2] of 9.6 µM.
As to `CCCc1ccc(N(C)C(=O)[C@H](Cc2cc(F)cc(F)c2)NC(=O)NS(=O)(=O)N[C@@H](Cc2cc(F)cc(F)c2)C(=O)N(C)c2ccc(CCC)cc2)cc1` [Example 182B], the pEC50 in data set [1] was 7.70. Moreover, in data set [2], the CC50 at 4 days turned out to be 13.4 µM.
Taken in the same sequence, the figures for `CCc1ncc(N(C)C(=O)[C@H](Cc2cc(F)cc(F)c2)NC(=O)NS(=O)(=O)N[C@@H](Cc2cc(F)cc(F)c2)C(=O)N(C)c2cnc(CC)nc2)cn1` [Example 208] were 4.80 and 37.7 µM.
Turning to `CN(C(=O)[C@H](Cc1ccccc1)Nc1nccc(-c2ccnc(N[C@@H](Cc3ccccc3)C(=O)N(C)c3ccc4scnc4c3)n2)n1)c1ccc2scnc2c1` [Example 135], the pEC50 in data set [1] was 7.05. Also, the midpoint of cytotoxicity in data set [2], the CC50 at 4 days, lay at 0.5 µM.
For the compound `COc1ccc(N(C)C(=O)[C@H](Cc2ccccc2)NC(=O)/C=C/CC(=O)N[C@@H](Cc2ccccc2)C(=O)N(C)c2ccc(OC)cc2)cc1` [Example 117], the pEC50 in data set [1] is 6.19. Half-maximal cytotoxicity in data set [2] (CC50 at 4 days) was put at 30.8 µM.
As for `C=CCCN(C(=O)[C@H](Cc1cc(F)cc(F)c1)NS(=O)(=O)NC(=O)N[C@@H](Cc1cc(F)cc(F)c1)C(=O)N(CC=C)c1ccc(OC)cc1)c1ccc(OC)cc1` [Example 123], in data set [1], the pEC50 is 6.42. Further, in data set [2], the half-maximal cytotoxic concentration (CC50) at 4 days was 19.2 µM.
Take `CCN(C(=O)[C@H](Cc1cc(F)cc(F)c1)NC(=O)CN1c2ccccc2N(CC(=O)N[C@@H](Cc2cc(F)cc(F)c2)C(=O)N(CC)c2ccc3oc(=O)n(CC)c3c2)S1(=O)=O)c1ccc2oc(=O)n(CC)c2c1` [Example 155]: in data set [1], the pEC50 was 5.67. Also, the CC50 at 4 days in data set [2] is at least 33.3 µM.
Taken in the same sequence, the figures for `COc1ccc(N(C)C(=O)[C@H](Cc2cc(F)cc(F)c2)NC(=O)c2cccc(C(=O)N[C@@H](Cc3cc(F)cc(F)c3)C(=O)N(C)c3ccc(OC)cc3)c2)cc1` [Example 49] were 7.40 and 10.8 µM.
Taken in the same sequence, the figures for `COc1ccc(N(C)C(=O)[C@H](Cc2cc(F)cc(F)c2)NC(=O)NS(=O)(=O)N[C@@H](Cc2cc(F)cc(F)c2)C(=O)N(C)c2ccc(OC)cc2)cc1` [Example 20] were 8.00 and 35 µM.
`COc1ccc(N(C)C(=O)[C@H](Cc2cc(F)cc(F)c2)NC(=O)Cc2cccc(CC(=O)N[C@@H](Cc3cc(F)cc(F)c3)C(=O)N(C)c3ccc(OC)cc3)c2)cc1` [Example 43]: the pEC50 in data set [1] is 6.32. In addition, the CC50 at 4 days in data set [2] worked out at 3.7 µM.
For `CN(C(=O)[C@H](Cc1ccccc1)NC(=O)NS(=O)(=O)N[C@@H](Cc1ccccc1)C(=O)N(C)c1ccccc1)c1ccccc1` [Example 85], the pEC50 in data set [1] was 6.01. The compound further came in with a CC50 at 4 days in data set [2] of at least 100 µM.
Consider `CCN(C(=O)[C@H](Cc1cc(F)cc(F)c1)NC(=O)NS(=O)(=O)N[C@@H](Cc1cc(F)cc(F)c1)C(=O)N(CC)c1ccc2scnc2c1)c1ccc2scnc2c1` [Example 152], for which the pEC50 in data set [1] was 7.22. The midpoint of cytotoxicity in data set [2], the CC50 at 4 days, lay at 99.3 µM.
For `COc1ccc(N(C)C(=O)[C@H](Cc2ccccc2)NC(=O)NS(=O)(=O)N[C@@H](Cc2ccccc2)C(=O)N(C)c2cc(OC)c(OC)c(OC)c2)cc1` [Example 17], in data set [1], the pEC50 was 4.91. In data set [2], this compound gave a CC50 at 4 days of 15.9 µM.
Turning to `Cc1cc(N(C)C(=O)[C@H](Cc2cc(F)cc(F)c2)NC(=O)NS(=O)(=O)N[C@@H](Cc2cc(F)cc(F)c2)C(=O)N(C)c2cnc(C)c(C)c2)cnc1C` [Example 235], the pEC50 in data set [1] is 5.15. Also, in data set [2], the CC50 at 4 days was at least 100 µM.
The corresponding values for `CN(C(=O)[C@H](Cc1cc(F)cc(F)c1)NC(=O)c1cncc(C(=O)N[C@@H](Cc2cc(F)cc(F)c2)C(=O)N(C)c2ccc3scnc3c2)c1)c1ccc2scnc2c1` [Example 129] are 8.00 and 5.3 µM.
Taken in the same sequence, the figures for `COc1ccc(N(C)C(=O)[C@H](Cc2ccccc2)Nc2nc(N)nc(N[C@@H](Cc3ccccc3)C(=O)N(C)c3ccc(OC)cc3)n2)cc1` [Example 124] were 5.42 and 31 µM.
Taken in the same sequence, the figures for `COc1ccc(N(C)C(=O)[C@H](Cc2cc(F)cc(F)c2)NC(=O)Cn2c(=O)c(=O)n(CC(=O)N[C@@H](Cc3cc(F)cc(F)c3)C(=O)N(C)c3ccc(OC)cc3)c3ccccc32)cc1` [Example 98] were 7.52 and 11.2 µM.
As to `COc1ccc(N(C)C(=O)[C@H](Cc2ccccc2)NC(=O)c2cc(Br)cc(C(=O)N[C@@H](Cc3ccccc3)C(=O)N(C)c3ccc(OC)cc3)c2)cc1` [Example 110], in data set [1], the pEC50 was 6.68. In data set [2], this compound returned a CC50 at 4 days of at least 100 µM.
The corresponding values for `COc1ccc(N(C)C(=O)[C@H](Cc2ccccc2)NC(=O)/C=C/C(=O)N[C@@H](Cc2ccccc2)C(=O)N(C)c2ccc(OC)cc2)cc1` [Example 31] are 6.11 and 3.5 µM.
Taken in the same sequence, the figures for `CN(C(=O)[C@H](Cc1cc(F)cc(F)c1)NC(=O)CN1c2ccccc2N(CC(=O)N[C@@H](Cc2cc(F)cc(F)c2)C(=O)N(C)c2ccc3sncc3c2)S1(=O)=O)c1ccc2sncc2c1` [Example 160] were 7.70 and at least 100 µM.
Take `COc1ccc(N(C)C(=O)[C@H](Cc2ccccc2)NC(=O)NS(=O)(=O)N[C@@H](Cc2ccccc2)c2nc(C)no2)cc1` [Example 7]: in data set [1], the pEC50 was 5.42. This compound also came in with a CC50 at 4 days in data set [2] of at least 100 µM.
The corresponding values for `CN(C(=O)[C@H](Cc1cc(F)cc(F)c1)NC(=O)NS(=O)(=O)N[C@@H](Cc1cc(F)cc(F)c1)C(=O)N(C)c1cccnc1)c1cccnc1` [Example 236] are 5.38 and at least 100 µM.
Turning to `CCN(C(=O)[C@H](Cc1cc(F)cc(F)c1)NC(=O)CN1c2ccccc2N(CC(=O)N[C@@H](Cc2cc(F)cc(F)c2)C(=O)N(CC)c2ccc3oc(=O)n(Cc4ccccc4)c3c2)S1(=O)=O)c1ccc2oc(=O)n(Cc3ccccc3)c2c1` [Example 153], in data set [1], the pEC50 is 5.81. Further, the CC50 at 4 days in data set [2] was found to be 3.1 µM.
In the case of `COc1ccc(N(C)C(=O)[C@H](Cc2ccccc2)NC(=O)CN2CCN(CC(=O)N[C@@H](Cc3ccccc3)C(=O)N(C)c3ccc(OC)cc3)C2=O)cc1` [Example 48], the pEC50 in data set [1] was 6.77. For the same compound, in data set [2], half-maximal cytotoxicity (CC50 at 4 days) was put at 30.9 µM.
Taken in the same sequence, the figures for `COc1ccc(N(C)C(=O)[C@H](Cc2ccccc2)Nc2ccnc(N[C@@H](Cc3ccccc3)C(=O)N(C)c3ccc(OC)cc3)n2)cc1` [Example 145] were 4.92 and 19.1 µM.

In general, pEC50 refers to the EC50 on a negative log10 scale, so that one unit is a factor of ten. Usually CC50 stands for the concentration at which the toxic effect on the cells reaches its halfway point. A lower CC50 goes with harm at low concentration.
